Test results reported in patent US6054435A, “6-O-substituted macrolides having antibacterial activity” (priority 1999, dated 2000).
Values after ≈ are worked out from the molar mass of the structure shown.

What was measured:
Experiment in all cases: in vitro antibacterial activity (MIC), agar dilution
Type in all cases: cell-based
Candida albicans CCH 442 = conditions: organism code TT; BHI agar, 35-37° C., 20 to 24 hours; unit assumed
Summary of the method: (§1)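 Endpoint: lowest concentration with no growth, slight haze or sparsely isolated colonies at the inoculum spot, judged against a compound-free BHI control. Strains were replicator-inoculated at 1:100 (1:10 for Streptococcus and other slow growers).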

[1] = system: Enterococcus faecium ATCC 8043; conditions: organism code II; BHI agar, 35-37° C., 20 to 24 hours; unit assumed
Summary of the method: as §1

Escherichia coli DC-2 = conditions: organism code SS; BHI agar, 35-37° C., 20 to 24 hours; unit assumed
Summary of the method: as §1

Escherichia coli JUHL = conditions: organism code QQ; BHI agar, 35-37° C., 20 to 24 hours; unit assumed
Summary of the method: as §1

Escherichia coli SS = conditions: organism code RR; BHI agar, 35-37° C., 20 to 24 hours; unit assumed
Summary of the method: as §1

[2] = system: Haemophilis Influenzae DILL AMP R; conditions: organism code WW; BHI agar, 35-37° C., 20 to 24 hours; unit assumed
Summary of the method: as §1

[3] = system: Micrococcus luteus ATCC 4698; conditions: organism code PP; BHI agar, 35-37° C., 20 to 24 hours; unit assumed
Summary of the method: (§2)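 Agar dilution in BHI agar, twelve successive compound dilutions. Inoculum 1:100, or 1:10 for slow-growing strains (e.g. Streptococcus), replicator-spotted. Read by eye; MIC = lowest concentration with no growth, slight haze or sparsely isolated colonies relative to growth control.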

[4] = system: Micrococcus luteus ATCC 9341; conditions: organism code OO; BHI agar, 35-37° C., 20 to 24 hours; unit assumed
Summary of the method: as §2

[5] = system: Mycobacterium smegmatis ATCC 114; conditions: organism code UU; BHI agar, 35-37° C., 20 to 24 hours; unit assumed
Summary of the method: as §1

[6] = system: Nocardia Asteroides ATCC9970; conditions: organism code VV; BHI agar, 35-37° C., 20 to 24 hours; unit assumed
Summary of the method: as §1

[7] = system: Staphylococcus aureus 1775; conditions: organism code GG; BHI agar, 35-37° C., 20 to 24 hours; unit assumed
Summary of the method: as §1

[8] = system: Staphylococcus aureus A-5278; conditions: organism code CC; BHI agar, 35-37° C., 20 to 24 hours; unit assumed
Summary of the method: as §1

[9] = system: Staphylococcus aureus A5177; conditions: organism code BB; BHI agar, 35-37° C., 20 to 24 hours; unit assumed
Summary of the method: as §1

[10] = system: Staphylococcus aureus ATCC 6538P; conditions: organism code AA; BHI agar, 35-37° C., 20 to 24 hours; unit assumed
Summary of the method: as §1

[11] = system: Staphylococcus aureus CMX 553; conditions: organism code FF; BHI agar, 35-37° C., 20 to 24 hours; unit assumed
Summary of the method: as §1

[12] = system: Staphylococcus aureus CMX 642A; conditions: organism code DD; BHI agar, 35-37° C., 20 to 24 hours; unit assumed
Summary of the method: as §1

[13] = system: Staphylococcus aureus NCTC10649M; conditions: organism code EE; BHI agar, 35-37° C., 20 to 24 hours; unit assumed
Summary of the method: as §1

[14] = system: Staphylococcus epidermidis 3519; conditions: organism code HH; BHI agar, 35-37° C., 20 to 24 hours; unit assumed
Summary of the method: as §1

[15] = system: Streptococcus Pneumonia 5649; conditions: organism code ZZA; BHI agar, 35-37° C., 20 to 24 hours; unit assumed
Summary of the method: as §1

[16] = system: Streptococcus Pneumonia 5979; conditions: organism code ZZ; BHI agar, 35-37° C., 20 to 24 hours; unit assumed
Summary of the method: as §1

[17] = system: Streptococcus Pneumonia ATCC6303; conditions: organism code XX; BHI agar, 35-37° C., 20 to 24 hours; unit assumed
Summary of the method: as §1

[18] = system: Streptococcus Pneumonia GYR 1171; conditions: organism code YY; BHI agar, 35-37° C., 20 to 24 hours; unit assumed
Summary of the method: as §1

[19] = system: Streptococcus agalactiae CMX 508; conditions: organism code KK; BHI agar, 35-37° C., 20 to 24 hours; unit assumed
Summary of the method: as §1

[20] = system: Streptococcus bovis A-5169; conditions: organism code JJ; BHI agar, 35-37° C., 20 to 24 hours; unit assumed
Summary of the method: as §1

[21] = system: Streptococcus pyogenes 930; conditions: organism code MM; BHI agar, 35-37° C., 20 to 24 hours; unit assumed
Summary of the method: as §1

[22] = system: Streptococcus pyogenes EES61; conditions: organism code LL; BHI agar, 35-37° C., 20 to 24 hours; unit assumed
Summary of the method: as §1

[23] = system: Streptococcus pyogenes PIU 2548; conditions: organism code NN; BHI agar, 35-37° C., 20 to 24 hours; unit assumed
Summary of the method: as §1

Row | Compound | MIC (Candida albicans CCH 442) [µg/mL] | MIC [1] [µg/mL] | MIC (Escherichia coli DC-2) [µg/mL] | MIC (Escherichia coli JUHL) [µg/mL] | MIC (Escherichia coli SS) [µg/mL] | MIC [2] [µg/mL] | MIC [3] [µg/mL] | MIC [4] [µg/mL] | MIC [5] [µg/mL] | MIC [6] [µg/mL] | MIC [7] [µg/mL] | MIC [8] [µg/mL] | MIC [9] [µg/mL] | MIC [10] [µg/mL] | MIC [11] [µg/mL] | MIC [12] [µg/mL] | MIC [13] [µg/mL] | MIC [14] [µg/mL] | MIC [15] [µg/mL] | MIC [16] [µg/mL] | also measured
1 | CC[C@H]1OC(=O)[C@H](C)C(=O)[C@H](C)[C@@H](O[C@@H]2O[C@H](C)C[C@H](N(C)C)[C@H]2O)[C@](C)(OC/C=C/c2cnc(-c3cccs3)s2)C[C@@H](C)C(=O)[C@H](C)[C@H]2NC(=O)O[C@@]21C [Example 57] | > 100 | 0.05 (≈ 0.0622 µM) | 100 (≈ 124 µM) | 100 (≈ 124 µM) | 0.39 (≈ 0.485 µM) | 4 (≈ 4.97 µM) | 0.05 (≈ 0.0622 µM) | 0.02 (≈ 0.0249 µM) | 0.2 (≈ 0.249 µM) | 0.05 (≈ 0.0622 µM) | 100 (≈ 124 µM) | > 100 | 0.05 (≈ 0.0622 µM) | 0.1 (≈ 0.124 µM) | 0.1 (≈ 0.124 µM) | 0.05 (≈ 0.0622 µM) | 0.2 (≈ 0.249 µM) | 0.05 (≈ 0.0622 µM) | 0.25 (≈ 0.311 µM) | 0.5 (≈ 0.622 µM) | MIC [17]: ≤ 0.004 µg/mL; MIC [18]: ≤ 0.004 µg/mL; MIC [19]: 0.01 µg/mL (≈ 0.0124 µM); MIC [20]: 0.02 µg/mL (≈ 0.0249 µM); MIC [21]: 25 µg/mL (≈ 31.1 µM); MIC [22]: 0.01 µg/mL (≈ 0.0124 µM); MIC [23]: 0.1 µg/mL (≈ 0.124 µM)
2 | CC[C@H]1OC(=O)[C@H](C)C(=O)[C@H](C)[C@@H](O[C@@H]2O[C@H](C)C[C@H](N(C)C)[C@H]2O)[C@](C)(OC/C=C/c2nc(-c3cccs3)cs2)C[C@@H](C)C(=O)[C@H](C)[C@H]2NC(=O)O[C@@]21C [Example 67] | > 100 | 0.05 (≈ 0.0622 µM) | > 100 | > 100 | 0.78 (≈ 0.97 µM) | 8 (≈ 9.95 µM) | 0.1 (≈ 0.124 µM) | 0.02 (≈ 0.0249 µM) | 0.39 (≈ 0.485 µM) | 0.1 (≈ 0.124 µM) | > 100 | > 100 | 0.1 (≈ 0.124 µM) | 0.1 (≈ 0.124 µM) | 0.1 (≈ 0.124 µM) | 0.1 (≈ 0.124 µM) | 0.1 (≈ 0.124 µM) | 0.1 (≈ 0.124 µM) | 0.25 (≈ 0.311 µM) | 32 (≈ 39.8 µM) | MIC [17]: 0.03 µg/mL (≈ 0.0373 µM); MIC [18]: 0.03 µg/mL (≈ 0.0373 µM); MIC [19]: 0.01 µg/mL (≈ 0.0124 µM); MIC [20]: 0.01 µg/mL (≈ 0.0124 µM); MIC [21]: 12.5 µg/mL (≈ 15.5 µM); MIC [22]: 0.01 µg/mL (≈ 0.0124 µM); MIC [23]: 0.1 µg/mL (≈ 0.124 µM)
3 | CCOC(=O)c1cncc(-c2ccc(C#CCO[C@]3(C)C[C@@H](C)C(=O)[C@H](C)[C@H]4NC(=O)O[C@]4(C)[C@@H](CC)OC(=O)[C@H](C)C(=O)[C@H](C)[C@H]3O[C@@H]3O[C@H](C)C[C@H](N(C)C)[C@H]3O)s2)c1 [Example 10] | > 100 | 0.1 (≈ 0.115 µM) | > 100 | > 100 | 0.78 (≈ 0.899 µM) | 8 (≈ 9.22 µM) | 0.2 (≈ 0.23 µM) | 0.01 (≈ 0.0115 µM) | 1.56 (≈ 1.8 µM) | 0.1 (≈ 0.115 µM) | > 100 | > 100 | 0.1 (≈ 0.115 µM) | 0.1 (≈ 0.115 µM) | 0.05 (≈ 0.0576 µM) | 0.1 (≈ 0.115 µM) | 0.2 (≈ 0.23 µM) | 0.2 (≈ 0.23 µM) | 0.5 (≈ 0.576 µM) | 4 (≈ 4.61 µM) | MIC [17]: 0.03 µg/mL (≈ 0.0346 µM); MIC [18]: 0.03 µg/mL (≈ 0.0346 µM); MIC [19]: 0.01 µg/mL (≈ 0.0115 µM); MIC [20]: 0.005 µg/mL (≈ 0.00576 µM); MIC [21]: 50 µg/mL (≈ 57.6 µM); MIC [22]: 0.01 µg/mL (≈ 0.0115 µM); MIC [23]: 0.2 µg/mL (≈ 0.23 µM)
4 | CC[C@H]1OC(=O)[C@H](C)C(=O)[C@H](C)[C@@H](O[C@@H]2O[C@H](C)C[C@H](N(C)C)[C@H]2O)[C@](C)(OC/C=C/c2ccc(-c3cnc(N)s3)s2)C[C@@H](C)C(=O)[C@H](C)[C@H]2NC(=O)O[C@@]21C [Example 53] | > 100 | 0.05 (≈ 0.061 µM) | 25 (≈ 30.5 µM) | 50 (≈ 61 µM) | 0.2 (≈ 0.244 µM) | 8 (≈ 9.77 µM) | 0.1 (≈ 0.122 µM) | 0.01 (≈ 0.0122 µM) | 3.1 (≈ 3.78 µM) | 0.1 (≈ 0.122 µM) | > 100 | > 100 | 0.1 (≈ 0.122 µM) | 0.1 (≈ 0.122 µM) | 0.1 (≈ 0.122 µM) | 0.1 (≈ 0.122 µM) | 0.1 (≈ 0.122 µM) | 0.1 (≈ 0.122 µM) | 1 (≈ 1.22 µM) | 16 (≈ 19.5 µM) | MIC [17]: 0.03 µg/mL (≈ 0.0366 µM); MIC [18]: 0.03 µg/mL (≈ 0.0366 µM); MIC [19]: 0.01 µg/mL (≈ 0.0122 µM); MIC [20]: 0.01 µg/mL (≈ 0.0122 µM); MIC [21]: 12.5 µg/mL (≈ 15.3 µM); MIC [22]: ≤ 0.005 µg/mL; MIC [23]: 0.1 µg/mL (≈ 0.122 µM)
